Source: US10947252B2, “Inhibitors of KEAP1-Nrf2 protein-protein interaction” (Janssen Pharmaceutica NV, priority 2018, dated 2021)

Tests used:
[1] = tested on: Glo-Response ARE-luc2P HEK293 cell line; test: ARE luciferase reporter cell-based assay; details: Homo sapiens, HEK293, 24 h, average of results obtained;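 further: luciferase signal tracks Nrf2 activation of the ARE once compounds disrupt KEAP1-Nrf2 binding, read with One-Glo reagent, DMSO serving as low control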
[2] = target: Kelch domain of human KEAP1 (321-624 aa) (Homo sapiens (Human), UniProt Q14145); test: KEAP1 KELCH ThermoFluor binding assay; details: KEAP Kelch […], 1,8-ANS, pH 7.0, average of results obtained, read-out: Tf Kd;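 further: Ligand-induced melting temperature shift of E. coli-expressed KEAP1 Kelch protein, Kd estimated from concentration-response curves of ΔTm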
Sequence of Kelch domain of human KEAP1 (321-624 aa) (Q14145 321-624): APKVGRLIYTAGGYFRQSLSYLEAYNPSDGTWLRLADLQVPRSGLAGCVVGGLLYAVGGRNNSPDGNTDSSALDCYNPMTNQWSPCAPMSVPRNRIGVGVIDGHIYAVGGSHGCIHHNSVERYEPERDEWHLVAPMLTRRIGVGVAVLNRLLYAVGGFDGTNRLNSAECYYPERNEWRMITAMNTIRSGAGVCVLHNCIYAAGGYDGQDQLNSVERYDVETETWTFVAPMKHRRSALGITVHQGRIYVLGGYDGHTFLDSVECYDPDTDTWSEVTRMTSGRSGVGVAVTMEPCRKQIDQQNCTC

| SMILES | EC50 [1] [nM] | Kd [2] [nM] |
| --- | --- | --- |
| Cc1cnc2c(c1)S(=O)(=O)N(Cc1cc([C@H](c3ccn4c(C(F)F)nnc4c3C)C(C)(C)C(=O)O)ccc1C)CC1(CCOCC1)O2 (single isomer, unassigned) [Example 577, (*R)-3-(3-(Difluoromethyl)-8-methyl-[1,2,4]triazolo[4,3-a]pyridin-7-yl)-2,2-dimethyl-3-(4-methyl-3-((8′-methyl-1′,1′-dioxido-2,3,5,6-tetrahydrospiro[pyran-4,4′-pyrido[2,3-b][1,4,5]oxathiazepin]-2′(3′H)-yl)methyl)phenyl)propanoic Acid] | 768 | 718 |
| Cc1ccc(C(CC(=O)O)c2ccn3c(C(F)F)nnc3c2C)cc1CN1C[C@@H]2CCCN2c2ncc(C#N)cc2S1(=O)=O (mixture of isomers) [Example 542, 3-(3-(((S)-3-Cyano-5,5-dioxido-7a,8,9,10-tetrahydropyrido[2,3-f]pyrrolo[2,1-d][1,2,5]thiadiazepin-6(7H)-yl)methyl)-4-methylphenyl)-3-(3-(difluoromethyl)-8-methyl-[1,2,4]triazolo[4,3-a]pyridin-7-yl)propanoic Acid] | 59.6 | < 1 |
| Cc1ccc([C@@H](CC(=O)O)c2ccn3c(C(F)(F)F)nnc3c2C)cc1CN1CC2(CC2)N(C)c2ncccc2S1(=O)=O (single isomer, unassigned) [Example 185, (*R)-3-(4-Methyl-3-((5′-methyl-1′,1′-dioxido-5′H-spiro[cyclopropane-1,4′-pyrido[2,3-f][1,2,5]thiadiazepin]-2′(3′H)-yl)methyl)phenyl)-3-(8-methyl-3-(trifluoromethyl)-[1,2,4]triazolo[4,3-a]pyridin-7-yl)propanoic Acid] | 2720 | 12 |
| Cc1ccc([C@H](c2ccn3c(C(F)(F)F)nnc3c2C)C(C)(C)C(=O)O)nc1CN1CC2(CCOCC2)Oc2ncccc2S1(=O)=O (single isomer, unassigned) [Example 39, (*R)-3-(6-((1′,1′-Dioxido-2,3,5,6-tetrahydrospiro[pyran-4,4′-pyrido[2,3-b][1,4,5]oxathiazepin]-2′(3′H)-yl)methyl)-5-methylpyridin-2-yl)-2,2-dimethyl-3-(8-methyl-3-(trifluoromethyl)-[1,2,4]triazolo[4,3-a]pyridin-7-yl)propanoic Acid] | 1260 | 4250 |
| Cc1ccc([C@@H](CC(=O)O)c2ccn3c(C(F)(F)F)nnc3c2C)nc1CN1C[C@H]2CCCCN2c2ncc(Cl)cc2S1(=O)=O (single isomer, unassigned) [Example 520, (*S)-3-(6-(((*R)-3-Chloro-5,5-dioxido-7,7a,8,9,10,11-hexahydro-6H-dipyrido[2,1-d:2′,3′-f][1,2,5]thiadiazepin-6-yl)methyl)-5-methylpyridin-2-yl)-3-(8-methyl-3-(trifluoromethyl)-[1,2,4]triazolo[4,3-a]pyridin-7-yl)propanoic Acid] | 15.6 | < 1 |
| Cc1c(C(CC(=O)O)c2ccc(Cl)c(CN3CC4CCCCN4c4ncc(F)cc4S3(=O)=O)c2)ccn2c(C(F)(F)F)nnc12 (stereo not shown) [Example 92, 3-(4-Chloro-3-(((*S)-3-fluoro-5,5-dioxido-7,7a,8,9,10,11-hexahydro-6H-dipyrido[2,1-d:2′,3′-f][1,2,5]thiadiazepin-6-yl)methyl)phenyl)-3-(8-methyl-3-(trifluoromethyl)-[1,2,4]triazolo[4,3-a]pyridine-7-yl)propanoic Acid] | 28.6 | < 1 |
| Cc1ccc([C@H](c2ccn3c(C(F)(F)F)nnc3c2C)C(C)(C)C(=O)O)cc1CN1CC2(CC2)Oc2nc(OCCN3CCCC3)c(C)cc2S1(=O)=O (single isomer, unassigned) [Example 658, (*R)-2,2-dimethyl-3-(4-methyl-3-((8′-methyl-1′,1′-dioxido-7′-(2-(pyrrolidin-1-yl)ethoxy)spiro[cyclopropane-1,4′-pyrido[2,3-b][1,4,5]oxathiazepin]-2′(3′H)-yl)methyl)phenyl)-3-(8-methyl-3-(trifluoromethyl)-[1,2,4]triazolo[4,3-a]pyridin-7-yl)propanoic Acid] | 6050 | 1210 |
| CCn1nnc2c(C)c(C(CC(=O)O)c3ccc(C)c(CN4CC5(CC5)Oc5ncccc5S4(=O)=O)n3)ccc21 (racemic) [Example 243, (R/S)-3-(6-((1′,1′-Dioxidospiro[cyclopropane-1,4′-pyrido[2,3-b][1,4,5]oxathiazepin]-2′(3′H)-yl)methyl)-5-methylpyridin-2-yl)-3-(1-ethyl-4-methyl-1H-benzo[d][1,2,3]triazol-5-yl)propanoic Acid] | 35 | < 1 |
| Cc1ccc([C@H](c2ccn3c(C(F)(F)F)nnc3c2C)C(C)(C)C(=O)O)cc1CN1CC2(CCOCC2)Oc2nc(N[C@@H](C)CN3CCCC3)c(C)cc2S1(=O)=O (single isomer, unassigned) [Example 367, (*R)-2,2-Dimethyl-3-(4-methyl-3-((8′-methyl-1′,1′-dioxido-7′-(((S)-1-(pyrrolidine-1-yl)propan-2-yl)amino)-2,3,5,6-tetrahydrospiro[pyran-4,4′-pyrido[2,3-b][1,4,5]oxathiazepin]-2′(3′H)-yl)methyl)phenyl)-3-(8-methyl-3-(trifluoromethyl)-[1,2,4]triazolo[4,3-a]pyridine-7-yl)propanoic Acid] | 78.6 | < 1 |
| Cc1ncc([C@@H](c2ccc3c(nnn3C3CC3)c2C)C(C)(C)C(=O)O)cc1CN1CC2(CCOCC2)Oc2ncccc2S1(=O)=O (single isomer, unassigned) [Example 45, (*R)-3-(1-Cyclopropyl-4-methyl-1H-benzo[d][1,2,3]triazol-5-yl)-3-(5-((1′,1′-dioxido-2,3,5,6-tetrahydrospiro[pyran-4,4′-pyrido[2,3-b][1,4,5]oxathiazepin]-2′(3′H)-yl)methyl)-6-methylpyridin-3-yl)-2,2-dimethylpropanoic Acid] | 6560 | 42600 |
| Cc1ccc([C@@H](CC(=O)O)c2ccn3c(C(F)(F)F)nnc3c2C)cc1CN1CC2(COC2)Oc2ccccc2S1(=O)=O (single isomer, unassigned) [Example 288, (*R)-3-(3-((1,1-dioxidospiro[benzo[b][1,4,5]oxathiazepine-4,3′-oxetan]-2(3H)-yl)methyl)-4-methylphenyl)-3-(8-methyl-3-(trifluoromethyl)-[1,2,4]triazolo[4,3-a]pyridin-7-yl)propanoic Acid] | 123 | < 1 |
| Cc1ccc(C(CC(=O)O)c2ccn3c(C(F)(F)F)nnc3c2C)nc1CN1CC2(COC2)Oc2ncccc2S1(=O)=O (stereo not shown) [Example 493, 3-(6-((1′,1′-Dioxidospiro[oxetane-3,4′-pyrido[2,3-b][1,4,5]oxathiazepin]-2′(3′H)-yl)methyl)-5-methylpyridin-2-yl)-3-(8-methyl-3-(trifluoromethyl)-[1,2,4]triazolo[4,3-a]pyridin-7-yl)propanoic Acid] | 1230 | < 1 |
| CC[C@@H]1CN(Cc2cc(C(CC(=O)O)c3ccn4c(C)nnc4c3)ccc2C)S(=O)(=O)c2cccnc2O1 (mixture of isomers) [Example 162, (R/S)-3-(3-(((R)-4-Ethyl-1,1-dioxido-3,4-dihydro-2H-pyrido[2,3-b][1,4,5]oxathiazepin-2-yl)methyl)-4-methylphenyl)-3-(3-methyl-[1,2,4]triazolo[4,3-a]pyridin-7-yl)propanoic Acid] | 2440 | < 1 |
| Cc1ncc([C@@H](c2ccc3c(nnn3C3CC3)c2C)C(C)(C)C(=O)O)cc1CN1CC2(COC2)Oc2ncccc2S1(=O)=O (single isomer, unassigned) [Example 613, (*R)-3-(1-Cyclopropyl-4-methyl-1H-benzo[d][1,2,3]triazol-5-yl)-3-(5-((1′,1′-dioxidospiro[oxetane-3,4′-pyrido[2,3-b][1,4,5]oxathiazepin]-2′(3′H)-yl)methyl)-6-methylpyridin-3-yl)-2,2-dimethylpropanoic Acid] | 33.2 | < 1 |
| COC1CCN(CCOc2nc3c(cc2C)S(=O)(=O)N(Cc2cc([C@@H](c4ccn5c(C(F)(F)F)nnc5c4C)C(C)(C)C(=O)O)ccc2C)CC2(CC2)O3)CC1 (single isomer, unassigned) [Example 378, (*S)-3-(3-((7′-(2-(4-Methoxypiperidin-1-yl)ethoxy)-8′-methyl-1′,1′-dioxidospiro[cyclopropane-1,4′-pyrido[2,3-b][1,4,5]oxathiazepin]-2′(3′H)-yl)methyl)-4-methylphenyl)-2,2-dimethyl-3-(8-methyl-3-(trifluoromethyl)-[1,2,4]triazolo[4,3-a]pyridine-7-yl)propanoic Acid] | 4 | < 1 |
| Cc1ccc([C@H](CC(=O)O)c2ccn3c(C(F)(F)F)nnc3c2C)cc1CN1CC(C)(C)Oc2ncccc2S1(=O)=O (single isomer, unassigned) [Example 269, (*S)-3-(3-((4,4-Dimethyl-1,1-dioxido-3,4-dihydro-2H-pyrido[2,3-b][1,4,5]oxathiazepin-2-yl)methyl)-4-methylphenyl)-3-(8-methyl-3-(trifluoromethyl)-[1,2,4]triazolo[4,3-a]pyridin-7-yl)propanoic Acid] | 365 | < 1 |
| Cc1ccc([C@@H](CC(=O)O)c2ccn3c(C(F)F)nnc3c2C)cc1CN1CC2(CCOCC2)Oc2ncc(F)cc2S1(=O)=O (single isomer, unassigned) [Example 534, (*R)-3-(3-(Difluoromethyl)-8-methyl-[1,2,4]triazolo[4,3-a]pyridin-7-yl)-3-(3-((8′-fluoro-1′,1′-dioxido-2,3,5,6-tetrahydrospiro[pyran-4,4′-pyrido[2,3-b][1,4,5]oxathiazepin]-2′(3′H)-yl)methyl)-4-methylphenyl)propanoic Acid] | 99.2 | < 1 |
